SMILES strings stand for the structures. Where a name gives a salt, the structure may show the parent alone.

For the first assay, the target named is AaDOP2 (Aedes aegypti, UniProt H6D5H2). The assay is described as follows: AaDOP2 antagonist screen of the LOPAC1280 library (HEK-CRELuc-Aadop2 cells, luminescence). The format is cell-based.
Sequence of AaDOP2 (H6D5H2 1-476): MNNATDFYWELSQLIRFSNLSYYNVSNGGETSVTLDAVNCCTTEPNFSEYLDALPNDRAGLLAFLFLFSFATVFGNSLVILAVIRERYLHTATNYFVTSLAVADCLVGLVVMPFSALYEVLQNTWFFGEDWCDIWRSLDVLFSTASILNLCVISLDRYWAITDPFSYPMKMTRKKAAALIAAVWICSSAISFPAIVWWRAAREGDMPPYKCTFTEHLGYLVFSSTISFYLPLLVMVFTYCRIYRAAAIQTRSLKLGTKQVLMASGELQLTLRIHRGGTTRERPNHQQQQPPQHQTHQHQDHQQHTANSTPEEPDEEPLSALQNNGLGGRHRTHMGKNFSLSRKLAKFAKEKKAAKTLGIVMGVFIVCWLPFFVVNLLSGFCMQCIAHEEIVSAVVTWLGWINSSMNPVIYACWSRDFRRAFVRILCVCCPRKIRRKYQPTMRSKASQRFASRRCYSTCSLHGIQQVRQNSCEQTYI
Settings: not given
Take `Cc1nc(N=Nc2ccc(C(=O)O)cc2)c(COP(=O)(O)O)c(C=O)c1O` [Compound 798, MRS 2159]: the “Compound effect (percent receptor signaling in presence of test compound, relative lux units relative to the SCH23390 control)” value is on record as 91. On the same count and under the same terms, under `NC(=O)COc1c(F)cc(SCCNS(=O)(=O)c2ccccc2)cc1F` [Compound 800, 2,6-Difluoro-4-[2-(phenylsulfonylamino)ethylthio]phenoxyacetamide] stands 89. Still for that read-out and setting: under `CC#C[C@]1(O)CC[C@H]2[C@@H]3CCC4=CC(=O)CCC4=C3[C@@H](c3ccc(N(C)C)cc3)C[C@@]21C` [Compound 801, Mifepristone] stands 94; under `C[C@](N)(Cc1ccc(O)cc1)C(=O)O` [Compound 802, L-alpha-Methyl-p-tyrosine], 100; under `CCOC(=O)C1=C(C)NC(=S)NC1c1cccc(O)c1` (centres unmarked) [Compound 803, Monastrol], 103. Still for that read-out and setting: under `Cn1ccnc1` [Compound 804, 1-Methylimidazole] stands 100. For `CNC1(C)C2CCC(C2)C1(C)C` (centres unmarked) [Compound 805, Mecamylamine hydrochloride], the “Compound effect (percent receptor signaling in presence of test compound, relative lux units relative to the SCH23390 control)” value came to 114. On to `CC12CC3CC(C)(C1)CC(N)(C3)C2` [Compound 807, Memantine hydrochloride], for which the “Compound effect (percent receptor signaling in presence of test compound, relative lux units relative to the SCH23390 control)” value was 91. On the same count and under the same terms, under `CN(N=O)c1ccc(O)c(O)c1` [Compound 808, Me-3,4-dephostatin] stands 101; under `CN(C)c1ccc(O)c2c1C[C@H]1C[C@H]3[C@H](N(C)C)C(O)=C(C(N)=O)C(=O)[C@@]3(O)C(O)=C1C2=O` [Compound 809, Minocycline hydrochloride], 94; under `CCCN(CCC)C(=O)C(CCC(=O)O)NC(=O)c1ccccc1` (centres unmarked) [Compound 812, Proglumide], 97. With `COc1ccccc1CNCCCCCCNCCCCCCCCNCCCCCCNCc1ccccc1OC` [Compound 815, Methoctramine tetrahydrochloride], the “Compound effect (percent receptor signaling in presence of test compound, relative lux units relative to the SCH23390 control)” value is 66.

As to `C[C@@]12N[C@@H](Cc3ccccc31)c1ccccc12.O=C(O)/C=C\C(=O)O` [Compound 817, (-)-MK-801 hydrogen maleate], the “Compound effect (percent receptor signaling in presence of test compound, relative lux units relative to the SCH23390 control)” value is listed as 98. Same read-out and setting: as for `Cc1[nH]c2ccc(O)cc2c1CCN.O=C(O)/C=C\C(=O)O` [Compound 818, 2-Methyl-5-hydroxytryptamine maleate], the figure is 102; as for `CC(N)Cc1c[nH]c2ccc(O)cc12.O=C(O)/C=C\C(=O)O` (stereo not drawn) [Compound 819, alpha-Methyl-5-hydroxytryptamine maleate], 92; as for `Cc1ccccc1N1C(=O)c2cc(S(N)(=O)=O)c(Cl)cc2NC1C` (centres unmarked) [Compound 820, Metolazone], 90. Still for that read-out and setting: under `S=C=Nc1cccc(C2(N3CCCCC3)CCCCC2)c1` [Compound 821, Metaphit methanesulfonate] stands 93; under `CC[C@@H](CO)NC(=O)[C@@H]1C=C2c3cccc4c3c(cn4C)C[C@H]2N(C)C1` [Compound 823, Methysergide maleate], 82; under `CNC(=O)OCC[N+](C)(C)C` [Compound 824, Methylcarbamylcholine chloride], 103.

Take `CSc1ccc2c(c1)C(N1CCN(C)CC1)Cc1ccccc1S2` (centres unmarked) [Compound 825, Methiothepin mesylate]: the “Compound effect (percent receptor signaling in presence of test compound, relative lux units relative to the SCH23390 control)” value stood at 1. Turning to `CN1C[C@@H](NS(=O)(=O)N(C)C)C[C@@H]2c3cccc4c3c(cn4C)C[C@H]21` [Compound 827, Mesulergine hydrochloride], the “Compound effect (percent receptor signaling in presence of test compound, relative lux units relative to the SCH23390 control)” value is reported as 88. Still for that read-out and setting: under `Cl.N=c1c[n+](N2CCOCC2)[n-]o1` [Compound 830, 3-Morpholinosydnonimine hydrochloride] stands 90; under `COc1ccc2c(c1)[C@@]13CCCC[C@H]1[C@@H](C2)NCC3.Cl` [Compound 831, 3-Methoxy-morphanin hydrochloride], 94. On the same count and under the same terms, under `O=C(O)/C(=C/c1c(C(=O)O)[nH]c2cc(Cl)cc(Cl)c12)c1ccccc1` [Compound 833, MDL 105,519] stands 83. On the same count and under the same terms, under `Cc1ccccc1CNc1ncnc2c1ncn2[C@@H]1O[C@H](CO)[C@@H](O)[C@H]1O` [Compound 834, Metrifudil] stands 96; under `O=C(O)c1cccnc1Nc1cccc(C(F)(F)F)c1` [Compound 837, Niflumic acid], 90. As for `CS(=O)(=O)Nc1ccc([N+](=O)[O-])cc1Oc1ccccc1` [Compound 838, Nimesulide], the “Compound effect (percent receptor signaling in presence of test compound, relative lux units relative to the SCH23390 control)” value was found to be 88. Same read-out and setting: under `O=C(CCNNC(=O)c1ccncc1)NCc1ccccc1` [Compound 839, Nialamide] stands 87.

Turning to `CN1Cc2c(N)cccc2C(c2ccccc2)C1` (centres unmarked) [Compound 840, Nomifensine maleate], the “Compound effect (percent receptor signaling in presence of test compound, relative lux units relative to the SCH23390 control)” value is reported as 42.

Turning to `Cl.Cl.Oc1ccc2c3c1O[C@H]1c4[nH]c5c(c4C[C@@]4(O)[C@@H](C2)N(CC2CC2)CC[C@]314)C[C@@]1(O)[C@H]2Cc3ccc(O)c4c3[C@@]1(CCN2CC1CC1)[C@H]5O4` [Compound 841, nor-Binaltorphimine dihydrochloride], the “Compound effect (percent receptor signaling in presence of test compound, relative lux units relative to the SCH23390 control)” value was 98. In the case of `CN(C)C(=O)Oc1cccc([N+](C)(C)C)c1` [Compound 842, Neostigmine bromide], the “Compound effect (percent receptor signaling in presence of test compound, relative lux units relative to the SCH23390 control)” value is 100. On the same count and under the same terms, as for `CC1(C)CCC(NC(=O)[C@@H](N)CCC(=O)O)CC1` [Compound 843, CR 2249], the figure is 92; as for `O=[N+]([O-])c1ccc(CSc2ncnc3c2ncn3[C@@H]2O[C@H](CO)[C@@H](O)[C@H]2O)cc1` [Compound 844, S-(4-Nitrobenzyl)-6-thioinosine], 93; as for `O=C1CC[C@@]2(O)[C@H]3Cc4ccc(O)c5c4[C@@]2(CCN3CC2CC2)[C@H]1O5` [Compound 845, Naltrexone hydrochloride], 101. For `N[C@@H](CCC(=O)N[C@@H](CSN=O)C(=O)NCC(=O)O)C(=O)O` [Compound 850, S-Nitrosoglutathione], the “Compound effect (percent receptor signaling in presence of test compound, relative lux units relative to the SCH23390 control)” value amounted to 100. On the same count and under the same terms, as for `O=C(O)/C=C1\CCCc2ccccc2C1O` (centres unmarked) [Compound 851, NCS-382], the figure is 97; as for `CCn1cc(C(=O)[O-])c(=O)c2ccc(C)nc21.[Na+]` [Compound 852, Nalidixic acid sodium], 99. For the molecule `Oc1ccc2c3c1O[C@H]1[C@@H](O)CC[C@@]4(O)[C@@H](C2)N(CC2CCC2)CC[C@]314` [Compound 853, Nalbuphine hydrochloride], the “Compound effect (percent receptor signaling in presence of test compound, relative lux units relative to the SCH23390 control)” value is listed as 96. The same measure, in the same setting: as for `O=C(O)c1cc([N+](=O)[O-])ccc1NCCCc1ccccc1` [Compound 854, 5-Nitro-2-(3-phenylpropylamino)benzoic acid], the figure is 99.

The same assay, now with this note: 10 µM compound, 300 nM dopamine, 2 hr; hit = compound effect <20.
Turning to `COc1ccc(NC(=O)c2ccc(-c3ccc(-c4noc(C)n4)cc3C)cc2)cc1N1CCN(C)CC1.Cl` [Compound 799, GR 127935 hydrochloride], the “Compound effect (percent receptor signaling in presence of test compound, relative lux units relative to the SCH23390 control)” value turned out to be 90%. On the same count and under the same terms, under `CNCCNS(=O)(=O)c1cccc2cnccc12.Cl.Cl` [Compound 811, H-8 dihydrochloride] stands 43%; under `C[C@](N)(Cc1ccc(O)c(O)c1)C(=O)O` [Compound 822, L-alpha-Methyl DOPA], 98%; under `CC(C)N(CCC(=O)c1ccc2ccccc2c1)Cc1ccccc1.Cl` [Compound 829, ZM 39923 hydrochloride], 83%. Still for that read-out and setting: as for `COc1ccccc1N1CCN(CCN(C(=O)c2ccc(I)cc2)c2ccccn2)CC1.Cl` [Compound 832, p-MPPI hydrochloride], the figure is 73%.

For `COc1ccccc1N1CCN(CCN(C(=O)c2ccc(F)cc2)c2ccccn2)CC1.Cl.Cl` [Compound 835, p-MPPF dihydrochloride], the “Compound effect (percent receptor signaling in presence of test compound, relative lux units relative to the SCH23390 control)” value came to 81%. Still for that read-out and setting: as for `Br.COc1ccccc1N1CCN(CCCCN2C(=O)c3ccccc3C2=O)CC1` [Compound 848, NAN-190 hydrobromide], the figure is 42%.

The same assay, now with this note: read-out: % of the SCH23390 effect (percent inhibition of receptor response relative to the SCH23390 control).
For `CSc1ccc2c(c1)C(N1CCN(C)CC1)Cc1ccccc1S2` (centres unmarked) [Compound 825, Methiothepin mesylate], the inhibition at 10 µM was determined as 99%.
